Test results as given in US20240150339A1, “Compounds and Their Use as PDE4 Activators” (Mironid Limited, priority 2021, published 2024).

Tested on: m-IMCD3 cells
Assay: Inhibition of PGE2-stimulated in vitro cyst formation in 3D culture of m-IMCD3 cells
Format: cell-based, mouse
Conditions: Mus musculus, mIMCD3, 144 h; 10 μM test compound; mean cyst area (%) compared to 100% for (DMSO + PGE2) and 0% for DMSO control; 100 nM PGE2; 6 days; read-out: % Cyst area after incubation with 10 μM test compound
Protocol: HEK 293 and MDCK cells (Public Health England, Cell Culture Collections) were maintained in Dulbecco's Modified Eagle's Medium (DMEM) supplemented with 10% (v/v) fetal bovine serum (FBS) (Seralab), 2 mM L-glutamine and 100 U/ml penicillin streptomycin cocktail (ThermoFisher); termed complete media. Clonal HEK 293 cell lines were maintained in complete media supplemented with 0.6 mg/mL G418 (Enzo Life Sciences). Mouse inner medullary collecting duct (m-IMCD3) cells [American Type Culture Collection (ATCC)] were maintained in media consisting of DMEM/Hams F-12 50/50 Mix (DMEM F12; Corning) supplemented with penicillin streptomycin cocktail (100 U/ml) and FBS (10% v/v) (DMEM F12-10% FBS).
The mouse Inner Medullary Collecting Duct cell line (m-IMCD3) spontaneously forms cystic spheroids in 3D culture with a Type 1 collagen/Matrigel extracellular matrix. This process can be stimulated with agents which raise intracellular cAMP, such as PGE2, and is used as an in vitro model for the formation of cystic structures in the kidneys of patients with ADPKD.
Rat Collagen I (Fisher Scientific) is prepared on ice by neutralising with 1M NaOH and diluting with a 2×volume of DMEM/F12+10% FBS for coating plate (coating mix) and a 2.2 volume of DMEM/F12+10% FBS for cell plating (plating mix). This is mixed 1:1.1 with ice cold Matrigel (Corning) for coating plates (coating mix), and 1:0.95 with Matrigel for cell plating (plating mix).
The assay is conducted in the wells of a 96-well plate culture dish using a total volume of 130 μl of collagen/Matrigel/DMEM F12-10% FBS suspension in growth media for each matrix plug per individual well. Initially, 30 μl of collagen/Matrigel/DMEM F12-10% FBS (coating mix) is added into the well of a 96 well plate and the collagen is set to a gel by incubating at 37° C. for at least 15 minutes. A second layer of 100 μl collagen/Matrigel suspension (plating mix) containing m-IMCD3 cells (2.75×10^6 m-IMCD3 cells per 96-well plate) is layered over the coating mix and the collagen/Matrigel/cell mix again set to a gel by incubating at 37° C. Cell cultures are maintained at 37° C. in an atmosphere of 5% CO2, 95% air.
Between 18 and 24h after plating, test compound(s) as DMSO stock solutions [0.1% (v/v) final DMSO concentration] and PGE2 (100 nM final concentration) in DMEM F12-10% FBS are added in quadruplicate wells per condition. Media, togetherwith the test compound and PGE2 are replenished after 2 or 3 days. After 6 days of culture z stack images of the wells are captured using the Nikon Eclipse Ti2-E microscope. Nikon General Analysis software is used to measure the following parameters in each well: the mean cyst area, the number of cysts, and the total cyst area.
PDE4 long form activators inhibited in vitro cyst formation in m-IMCD3 cells. Data are shown in FIG. 2 and Table 5 as mean cyst area (%), compared to 100% for (DMSO+PGE2) and 0% for DMSO control.

SMILES | activity at 10 µM
O=C(N[C@H]1CCOc2ccccc21)c1ccc2nc(N3C[C@H]4C[C@@H]3CN4)sc2c1 [Example 78, 2-((1R,4R)-2,5-diazabicyclo[2.2.1]heptan-2-yl)-N-((S)-chroman-4-yl)benzo[d]thiazole-6-carboxamide] | 24%
O=C(N[C@H]1CCOc2ccccc21)c1ccc2nc(N3CCOCC3)sc2c1 [Example 69, (S)-N-(chroman-4-yl)-2-morpholinobenzo[d]thiazole-6-carboxamide] | 20%
O=C(N[C@H]1CCOc2ccccc21)c1ccc2nc([C@H]3CCCNC3)sc2c1 (single isomer, unassigned) [Example 176] | 1%
CCN1CCN(c2nc3ccc(C(=O)NCc4ccc(F)cc4)cc3s2)CC1 [Example 80, 2-(4-ethylpiperazin-1-yl)-N-(4-fluorobenzyl)benzo[d]thiazole-6-carboxamide] | 26%
O=C(N[C@H]1CCc2cccc(F)c21)c1ccc2nc(N3CCNCC3)sc2c1 [Example 98, (S)-N-(7-fluoro-2,3-dihydro-1H-inden-1-yl)-2-(piperazin-1-yl)benzo[d]thiazole-6-carboxamide] | 27%
CCN1CCC(c2nc3ccc(C(=O)NC4CCCC4)c(C)c3s2)CC1 [Example 193, N-cyclopentyl-2-(1-ethylpiperidin-4-yl)-7-methylbenzo[d]thiazole-6-carboxamide] | 2%
CCN1CC(c2nc3ccc(C(=O)NC4CCCC4)cc3s2)C1 [Example 281, N-cyclopentyl-2-(1-ethylazetidin-3-yl)benzo[d]thiazole-6-carboxamide] | 10%
O=C(N[C@H]1CCc2ccccc21)c1ccc2nc(N3CCNCC3)sc2c1 [Example 96, (S)-N-(2,3-dihydro-1H-inden-1-yl)-2-(piperazin-1-yl)benzo[d]thiazole-6-carboxamide] | 2%
Cc1cncc(-c2nc3ccc(C(=O)NCc4cccc(Cl)c4)cc3s2)c1 [Example 34, N-[(3-chlorophenyl)methyl]-2-(5-methylpyridin-3-yl)benzo[d]thiazole-6-carboxamide] | 26%
CN1CCC(c2nc3ccc(S(=O)(=O)NC4CCCC4)cc3s2)CC1 [Example 288, N-cyclopentyl-2-(1-methylpiperidin-4-yl)benzo[d]thiazole-6-sulfonamide] | 11%
O=C(NCc1ccc(F)cc1)c1ccc2nc(C3CCNCC3)sc2c1 [Example 124, N-(4-fluorobenzyl)-2-(piperidin-4-yl)benzo[d]thiazole-6-carboxamide] | 11%
CCN1CCN(c2nc3ccc(C(=O)N[C@@H]4CCOc5ccccc54)cc3s2)CC1 [Example 73, (R)-N-(chroman-4-yl)-2-(4-ethylpiperazin-1-yl)benzo[d]thiazole-6-carboxamide] | 26%
O=C(N[C@@H]1c2ccccc2C[C@@H]1O)c1ccc2nc(C3CCNCC3)sc2c1 [Example 130, N-((1R,2S)-2-hydroxy-2,3-dihydro-1H-inden-1-yl)-2-(piperidin-4-yl)benzo[d]thiazole-6-carboxamide] | -2%
CN1C[C@@H]2CN(c3nc4ccc(C(=O)NC5CCCCC5)cc4s3)C[C@@H]2C1 [Example 261, N-cyclohexyl-2-((3aR,6aS)-5-methylhexahydropyrrolo[3,4-c]pyrrol-2 (1H)-yl)benzo[d]thiazole-6-carboxamide] | 3%
CC(C)NC(=O)c1cc(C2CC2)c2nc(C3CCNCC3)sc2c1 [Example 232, 4-cyclopropyl-N-isopropyl-2-(piperidin-4-yl)benzo[d]thiazole-6-carboxamide] | -2%
CN(C(=O)c1ccc2nc(C3CCNCC3)sc2c1)C1CCCC1 [Example 271, N-cyclopentyl-N-methyl-2-(piperidin-4-yl)benzo[d]thiazole-6-carboxamide] | 27%
Cc1ccnc(C)c1-c1nc2ccc(C(=O)N[C@H]3CCOc4ccccc43)cc2s1 [Example 52, (S)-N-(chroman-4-yl)-2-(2,4-dimethylpyridin-3-yl)benzo[d]thiazole-6-carboxamide] | 24%
COC1CCN(c2nc3ccc(C(=O)N[C@H]4CCOc5ccccc54)cc3s2)CC1 [Example 70, (S)-N-(chroman-4-yl)-2-(4-methoxypiperidin-1-yl)benzo[d]thiazole-6-carboxamide] | -18%
Cc1cncc(-c2nc3ccc(C(=O)NCc4ccccc4)cc3s2)c1 [Example 30, N-benzyl-2-(5-methylpyridin-3-yl)benzo[d]thiazole-6-carboxamide] | 21%
O=C(N[C@@H]1CCOc2cc(F)ccc21)c1ccc2nc(N3CCNCC3)sc2c1 [Example 88, (R)-N-(7-fluorochroman-4-yl)-2-(piperazin-1-yl)benzo[d]thiazole-6-carboxamide] | 22%
O=C(N[C@H]1CCOc2ccccc21)c1ccc2nc(N3CCN(CCO)CC3)sc2c1 [Example 120, (S)-N-(chroman-4-yl)-2-(4-(2-hydroxyethyl)piperazin-1-yl)benzo[d]thiazole-6-carboxamide] | -5%
COc1ccc2c(c1)[C@H](NC(=O)c1ccc3nc(N4CCNCC4)sc3c1)CC2 [Example 107, (R)-N-(6-methoxy-2,3-dihydro-1H-inden-1-yl)-2-(piperazin-1-yl)benzo[d]thiazole-6-carboxamide] | 17%
COc1ccc2c(c1)CC[C@@H]2NC(=O)c1ccc2nc(N3CCNCC3)sc2c1 [Example 108, (S)-N-(5-methoxy-2,3-dihydro-1H-inden-1-yl)-2-(piperazin-1-yl)benzo[d]thiazole-6-carboxamide] | 22%
CC(C)c1ccc(-c2nc3ccc(C(=O)N[C@H]4CCOc5ccccc54)cc3s2)cn1 [Example 28, (S)-N-(chroman-4-yl)-2-(6-isopropylpyridin-3-yl)benzo[d]thiazole-6-carboxamide] | 26%
O=C(NC1CCCC1)c1ccc2nc(N3CC4(CNC4)C3)sc2c1 [Example 255, N-cyclopentyl-2-(2,6-diazaspiro[3.3]heptan-2-yl)benzo[d]thiazole-6-carboxamide] | 11%
O=C(NC1CCCC1)c1ccc2nc(C3CCNCC3)sc2c1 [Example 134, N-cyclopentyl-2-(piperidin-4-yl)benzo[d]thiazole-6-carboxamide] | 16%
CCN1CCN(c2nc3ccc(C(=O)NC(C)C)cc3s2)CC1 [Example 82, 2-(4-ethylpiperazin-1-yl)-N-isopropylbenzo[d]thiazole-6-carboxamide] | 6%
CCN1CCC(c2nc3ccc(C(=O)N[C@@H]4c5ccccc5C[C@@H]4O)cc3s2)CC1 [Example 166, 2-(1-ethylpiperidin-4-yl)-N-((1R,2S)-2-hydroxy-2,3-dihydro-1H-inden-1-yl)benzo[d]thiazole-6-carboxamide] | -10%
CC(C)OCCNC(=O)c1ccc2nc(N3C4CCC3CNC4)sc2c1 [Example 278, 2-(3,8-diazabicyclo[3.2.1]octan-8-yl)-N-(2-isopropoxyethyl)benzo[d]thiazole-6-carboxamide] | 18%
COc1cc2nc(N3CCNCC3)sc2cc1C(=O)N[C@H]1CCc2ccccc21 [Example 224, (S)-N-(2,3-dihydro-1H-inden-1-yl)-5-methoxy-2-(piperazin-1-yl)benzo[d]thiazole-6-carboxamide] | 8%
